These results are taken from PMC5790502, “The anti-rheumatic drug, leflunomide, synergizes with MEK inhibition to suppress melanoma growth” (Oncotarget, 2017).

Test [1] deals with M285 melanoma cells. Nature of the test: Cell viability assay (CellTiter-Glo). The test is classed as cell-based. The note with it: Homo sapiens, 72 hours treatment. On the procedure: (§1) Cells that had been seeded 24 hours earlier on poly-L-lysine coated 96-well plates (Sigma-Aldrich) to subconfluency, were treated with drugs at the indicated concentrations for 72 hours. Cytochalasin D (Sigma Aldrich) was used as a positive control. All conditions were repeated in triplicate. Cell viability was determined on day 5 using the CellTiter-Glo Luminescence assay (Promega), according to the manufacturer’s instructions. Luminescence from the plate was read on a BMG LabTech Omega Series plate reader (data analyzed using OMEGA software). Cell viability was calculated as a percentage of the mean vehicle control.
(§2) For pharmacological analysis, IC50 values were generated using Prism Graphpad software (Graphpad Software, Inc.) and calculated using a nonlinear regression model. Combinatorial drug synergy was assessed by determination of combination index (CI), which was calculated using CalcuSyn (Biosoft) software using the median effects methods as described by Chou and Talalay, CI values less than 0.7 indicated synergy, 0.7–0.9 weak synergy, 0.9–1.1 additivity, 1.1–1.45 indicated weak antagonism and greater than 1.45 antagonism.
(In general: ATP-based viability assays read luminescence as a measure of living cells.)

For test [2], the system named is rhabdomyosarcoma cells (RD-1). Description: Cell viability assay (CellTiter-Glo). The test is classed as cell-based. The note with it: Homo sapiens. On the procedure: as §1, §2
The test system of test [3] is SKmel5 melanoma cells. Description: Cell viability assay (CellTiter-Glo). The test is classed as cell-based. As to conditions: Homo sapiens; for IC50: SK-MEL-5, 72 hours treatment. On the procedure:
as §1, §2

Test [4] deals with M229 melanoma cells. Description: Cell viability assay (CellTiter-Glo). The note with it: Homo sapiens, 72 hours treatment. The test is classed as cell-based. On the procedure:
as §1, §2

In test [5] the test system is SKmel28 melanoma cells. Description: Cell viability assay (CellTiter-Glo). The test is classed as cell-based. As to conditions: Homo sapiens, SK-MEL-28, 72 hours treatment. On the procedure: as §1, §2
Test [6] relates to M375 melanoma cells. Nature of the test: Cell viability assay (CellTiter-Glo). The note with it: Homo sapiens. The test is classed as cell-based. On the procedure:
as §1, §2

For test [7], the system named is M202 melanoma cells. Description: Cell viability assay (CellTiter-Glo). As to conditions: Homo sapiens, 72 hours treatment. The test is classed as cell-based. On the procedure:
as §1, §2

Test [8] relates to M296 melanoma cells. Nature of the test: Cell viability assay (CellTiter-Glo). The test is classed as cell-based. As to conditions: Homo sapiens, 72 hours treatment. On the procedure: as §1, §2
The test system of test [9] is A375 melanoma cells. Nature of the test: Cell viability assay (CellTiter-Glo). The note with it: Homo sapiens, A-375, 72 hours treatment. The test is classed as cell-based. On the procedure:
as §1, §2

In test [10] the test system is M375 melanoma tumors. Nature of the test: Mouse xenograft study. The test is classed as in vivo. As to conditions: M375 xenograft in SCID mice, 12 days; leflunomide 7.5 mg/kg IP daily, selumetinib 30 mg/kg OG; vs vehicle control. On the procedure: 8–10-week-old female severe immunodeficiency (SCID) mice were purchased from Charles River Laboratories. All procedures were performed under UK Home Office approved protocols and the University of East Anglia local guidelines. Experiments were conducted strictly in accordance with the locally approved animal handling protocol.
A total of 3 × 10^6 M375 melanoma cells were injected subcutaneously into 40 SCID mice. After approximately 4 weeks when the tumors were palpable, the mice were randomized into 4 arms. The 4 arms were; vehicle alone, leflunomide alone, selumetinib alone and leflunomide and selumetinib in combination. There were 10 mice in each arm. The drug regime was administered for 12 days. Leflunomide was administered by intraperitoneal (IP) injection daily at 7.5 mg/kg. Selumetinib was administered by oral gavage (OG) twice daily at 30 mg/kg for the first two days and was then delivered once daily thereafter. The tumor volume was measured every three days with calipers. Tumor volume was measured by the formula 0.52 (length × width^2). At the end of the experiment, the mice were culled and the excised tumors were weighed.

Test [11] relates to phospho-ERK. Nature of the test: Western blot of phospho-ERK. The note with it: A375 and M202 cells; 0.1 or 1 µM selumetinib. The test is classed as cell-based, human. On the procedure:
A375 melanoma cells were seeded and treated for 72 hours in varying drug conditions. Total protein extracts were then made using high SDS content lysis buffer (60 mM sucrose, 65 mM Tris-HCl, pH 6.8. 3% SDS). Protein concentration was determined using the DC protein assay (BIORAD). 10 μg of whole-cell protein lysate was loaded onto a 10% SDS-PAGE gel and transferred onto polyvinylidene difluoride membranes (Bio-Rad). A standard Western blot protocol was used for detection of the specific proteins as previously described.
Antibodies used included; Rabbit polyclonal phospho-ERK (1:1000, Cell Signalling Technology); Rabbit polyclonal phospho-p44/42 MAPK (1:1000, ERK1/2; Cell Signalling Technology); Mouse monoclonal HSC-70 (1:1000, Santa-Cruz Biotechnology); Rabbit polyclonal Mcl-1 (1:500, Santa-Cruz Biotechnology); Rabbit polyclonal anti-BIM (1:500, Merck-Millipore); Rabbit polyclonal PARP (1:1000, Cell Signalling Technology); Rabbit polyclonal PUMA (1:1000, Cell Signalling Technology); anti-rabbit IgG HRP linked secondary antibody (1:2000, Jackson ImmunoResearch); Anti-mouse IgG HRP linked secondary antibody (1:2000, Jackson ImmunoResearch); All anti-rabbit IgG HRP linked secondary antibody (1:2000, Cell Signalling Technology).
Background: A western blot detects proteins with antibodies after separation by electrophoresis.

Consider `Cn1cnc2c(F)c(Nc3ccc(Br)cc3Cl)c(C(=O)NOCCO)cc21` [Selumetinib, selumetinib], for which the IC50 in test [1] was 500 nM; in test [2] (RD1, 72 hours treatment), 1050 nM; in test [3], 1010 nM; in test [4], 200 nM; in test [5] it was 430 nM; in [6] (M375, 72 hours treatment) it was 100 nM. Moreover, the IC50 in test [6] (M375 melanoma cell line, Meki alone, combinatorial viability study (Figure 4A(i))) worked out at 64 nM; in test [7], 500 nM; in test [8], 470 nM; in [9], 190 nM. In addition, the viability at 1 µM in test [2] (RD1, 1 μM selumetinib, read-out: cell viability (relative to vehicle control)) came to 55%; in test [3] (SK-MEL-5, 1 μM selumetinib, read-out: cell viability (relative to vehicle control)) it was 51.8%. Moreover, the tumor volume result in test [10] is recorded as “significantly reduced the average tumor volume”. For the same compound, the “amount of pERK protein” value in [11] is reported as “decreases in a dose-dependent manner”.
Take `CCCS(=O)(=O)Nc1ccc(F)c(C(=O)c2c[nH]c3ncc(-c4ccc(Cl)cc4)cc23)c1F` [Vemurafenib, vemurafenib]: the IC50 was 150 nM in [3]; 300 nM in test [4]; 800 nM in test [5]; 1700 nM in test [7]; 2000 nM in test [8]; 700 nM in [9].

For orientation: IC50 means the concentration needed to halve the response being measured. In general, viability refers to a read-out of living cells in per cent, often relative to untreated cells.
